The test system of this data set is APOE4 mice. Nature of the data set: Barnes maze (spatial learning and memory) after doxorubicin treatment in APOE4 mice. As to conditions: female APOE4 mice. In kind it is in vivo, mouse. How it is done: A study was conducted to evaluate the effects of RAGE inhibition on preventing CRCD. The study was performed using a mouse model of C57BL/6 J mice having the human APOE4 allele in the mouse APOE gene locus.
In the study, 24 female APOE mice were divided evenly into three treatment groups: Group 1, which received a vehicle control; Group 2, which received doxorubicin, a chemotherapy medication used to treat a variety of cancers that include breast cancer, bladder cancer, Kaposi's sarcoma, lymphoma, and acute lymphocytic leukemia; and Group 3, which received doxorubicin and FPS-ZM1, RAGE antagonist. Groups 2 and 3 were administered the doxorubicin as two doses of 5 mg/kg, separated by one week. Group 3 was administered 2 mg/kg of FPS-ZMI twice per week by intraperitoneal injection starting one week before the first administration of doxorubicin and continuing throughout the study.
Four weeks after doxorubicin treatment (or the vehicle control) was completed, mice were analyzed for hippocampal based memory via the Barnes maze (San Diego Instruments Inc., San Diego, CA). […] The apparatus was captured by overhead video and assessed using ANY-maze™ software. […]
The time to identify the correct (escape) hole on the final day is compared between groups. Primary latency, defined as the time for the mouse to make a first nose poke into the escape hole, was assessed. […]

As for `O=C(c1ccc(Cl)cc1)N(Cc1ccccc1)C1CCCCC1` [FPS-ZMI], the “primary latency (latency to identify the escape hole)” value (Group 3: doxorubicin two doses of 5 mg/kg plus FPS-ZM1 2 mg/kg intraperitoneal twice per week from one week before doxorubicin, training day 4, p=0.12 vs Group 2) was determined as 28.0 s.

With `COc1cccc2c1C(=O)c1c(O)c3c(c(O)c1C2=O)C[C@@](O)(C(=O)CO)C[C@@H]3O[C@H]1C[C@H](N)[C@H](O)[C@H](C)O1` [doxorubicin], for the setting “Group 2: doxorubicin two doses of 5 mg/kg one week apart, Barnes maze training day 4, four weeks after doxorubicin, Group 1 control 24.6 seconds”, the “primary latency (time to first nose poke into the escape hole)” value was 58.2 s.

These data come from patent publication US20240226065A1, “USE OF RAGE INHIBITORS TO TREAT CANCER-RELATED COGNITIVE DECLINE” (Georgetown University, priority 2021, published 2024).
